Laboratory results as given in patent US9180155B2, “Compositions from Nigella sativa” (Bio Nexus, Ltd, priority 2013, dated 2015).

Columns and labels:
[1] = tested on: prostate specific antigen (PSA) secretion by LNCaP prostate cells; assay: PSA secretion from LNCaP prostate cells; assay type: cell-based, Human; settings: 5 to 100 μg/mL (Spent#1, NSSpent#2: 250 and 500)
From the text: PSA was quantified from the cell culture supernatant fluid using the Quantikine Human KLK3/PSA Immunoassay kit (R&D Systems, Inc., Minneapolis, Minn.). All other materials used in this example were purchased from Sigma (St. Louis, Mo.) or otherwise noted and were of the highest purity commercially available. The N. sativa samples used in this study were those commercial-scale extracts described in Example 1. The LNCaP prostate cell line, which produces PSA, was used to study the effects of commercial-scale N. sativa scale extracts of Example 1 and pure TQ on the secretion of PSA. LNCaP cells were purchased from the American Type Culture Collection (ATCC, Manassas, Va.) and sub-cultured according to instructions supplied by ATCC. Prior to experiments, cells were cultured in DMEM containing 10% FBS-HI added 50 units penicillin/ml and 50 μg streptomycin/ml, and maintained in log phase prior to experimental setup. Cells were grown in a 5% CO2 humidified incubator at 37° C. Components of medium included: (1) 10% FBS/DMEM (Fetal Bovine Serum/Dulbecco's Modified Eagle's Medium) containing 4.5 g glucose/L; (2) 50 U/ml penicillin; and (3) 50 μg/ml streptomycin. Growth medium was made by adding 50 ml of heat inactivated FBS and 5 ml of penicillin/streptomycin to 500 ml DMEM. This medium was stored at 4° C. Before use, the medium was warmed to 37° C. in a water bath. LNCaP cells were seeded at an initial density of 6×10^4 cells/cm^2 in 96-well plates. For two days, the cells were allowed grow to reach confluence. On day three post seeding, cells were treated with TQ, NS8, NS9, NS10, Spent#1, and NSSpent#2 at the concentrations listed in FIGS. 5, 6 and 7. Twenty-four hours later, the supernatant media were sampled and assayed for PSA.

C2C12 myocytes = assay: Lipolysis (glycerol assay) in C2C12 myocytes; assay type: cell-based, murine; settings: 5 or 2.5 μg/mL (FIG. 10)
Procedure: Culture and treatment of 3T3-L1 adipocytes and C2C12 myocytes was as described in Example 5. Concentrations of the forskolin positive control and test materials are listed in FIG. 9 for adipocytes and FIG. 10 for myocytes. Free fatty acid release from 3T3-L1 adipocytes or C2C12 myocytes was quantified by measuring glycerol secretion into the medium. Glycerol was measured spectrophotometrically using the Free Glycerol Determination Kit ([…], Sigma) and an EL 312e Microplate BIO-KINETICS spectrophotometer (BioTek, Winooski, Vt.). Glycerol release from adipocytes and myocytes was expressed, respectively, as the percent increase in free fatty acid secretion (FIG. 9) and relative glycerol content (glycerol index FIG. 10) ±95% confidence intervals of eight observations for one of three representative experiments.

Caco-2 monolayers = assay: LPS/H2O2-mediated loss of TEER in Caco-2 monolayers; assay type: cell-based, human; settings: LPS/H2O2 control = 100, 3 h; μg TQ equivalents/mL: Thymoquinone 5.0, NS8 0.11, NS9 0.99, NS10 0.012, NSSpent#2 0.0005; NSSpent#1 5 μg/mL; listed as TQ
From the text: The protocol for growing and differentiation the human Caco-2 colon andenocarcinoma cells was a modification of Protocol 3 as described by Yamashita et al. [[…]., and Furuyama, Y. 2002) New and better protocols for a short-term Caco-2 cell culture system, J Pharm Sci 91, 669-679]. Caco-2 Human Colon Adenocarcinoma cells were obtained from ATCC (Rockville, Md.; catalog #HTB-37) and maintained in a growth media: DMEM (Dulbecco's Modified Eagles Medium 1×) containing L-glutamine, glucose; Cellgro catalog #35-010CV with the following additions: (1) Penicillin (5,000 IU/mL)/Streptomycin (5,000 μg/mL) Cellgro catalog #30-001C1, (2) 10% FBS-Fetal Bovine Serum, Characterized; Hyclone catalog #SH30071.3, and (3) 1% NEAA-Non Essential Amino Acids; Cellgro catalog #25-025-CI; cells were cultured at 37 C in a humidified air-5% CO2 atmosphere in T175 flasks. BIOCOAT^R HTS Caco-2 Assay System kits (Becton Dickinson, N.J.; catalog #354801) consisting of 24-well fibrillar collagen coated inserts and feeder trays were used in all experiments and plated as follows. Media was removed from the T175 flasks and cells were washed with 10 mLs PBS (phosphate buffered saline 1× without Ca^++, without Mg^++; Cellgro #25-053-CI). […]

CC1=CC(=O)C(C(C)C)=CC1=O [Thymoquinone, thymoquinone]
Effect on PSA Secretion over 24 Hours ([1]; at 5 and 10 µg/mL): Decreased PSA at 5 and 10 μg/mL, dramatic
Effect on PSA Secretion over 24 Hours ([1]; at 50 and 100 µg/mL): increase in PSA secretion at 50 and 100 μg/mL.
Effect on PSA Secretion over 24 Hours ([1]; listed as TQ): decreased PSA only at the two lowest doses tested
free fatty acid release in myocytes (C2C12 myocytes): induced free fatty acid release
Relative Loss of TEER (Caco-2 monolayers): no effect
